# “Also recorded” adds a separate entry of the source. Read-outs that look alike come from different tables or passages of the source.
# How the values were obtained:
# [1] = test system: translation in rabbit reticulocyte lysate (RRL); assay: In vitro translation assay in rabbit reticulocyte lysate (RRL); details: for inhibition of translation of luciferase RNA in RRL: luminescence assay, FIG. 2A/2B
# [2] = biological target: T1, ProRS (amino acids 998-1513 of human EPRS) (Homo sapiens, UniProt P07814); assay: [3H]-HFol binding to immobilized ProRS; details: for inhibition of [3H]-HFol binding to ProRS: FIG. 4A
# T1 construct: Purified 6-his tagged ProRS (amino acids 998-1513 of human EPRS) was immobilized on N-NTA beads; made in house; host or cells: E. coli BL21(DE3), plasmid pKS509
# T1 sequence (P07814 998-1512 limits assumed): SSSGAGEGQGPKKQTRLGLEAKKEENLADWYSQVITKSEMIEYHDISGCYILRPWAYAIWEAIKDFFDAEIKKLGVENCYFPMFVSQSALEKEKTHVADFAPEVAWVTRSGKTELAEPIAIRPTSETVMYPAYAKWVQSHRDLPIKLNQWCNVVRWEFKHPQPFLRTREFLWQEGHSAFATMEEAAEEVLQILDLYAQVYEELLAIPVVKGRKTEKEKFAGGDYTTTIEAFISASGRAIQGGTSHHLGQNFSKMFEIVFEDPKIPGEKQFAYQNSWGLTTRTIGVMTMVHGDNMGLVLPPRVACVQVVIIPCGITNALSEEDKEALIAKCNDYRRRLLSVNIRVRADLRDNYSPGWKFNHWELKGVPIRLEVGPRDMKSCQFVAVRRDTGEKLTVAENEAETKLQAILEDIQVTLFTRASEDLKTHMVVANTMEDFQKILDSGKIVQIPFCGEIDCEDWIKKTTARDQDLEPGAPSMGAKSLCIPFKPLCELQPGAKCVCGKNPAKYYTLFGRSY
# Method: B) [^3H]-HFol binding was assayed as described above in the presence of indicated concentrations of proline. […] IMR90 lung fibroblasts were treated with a siRNAs directed against EPRS (Dharmacon) or a control siRNA mixture for 48 hours, and then treated with HF for 2 hours (pGCN2) and examined for EPRS protein levels, GCN2 total protein and phospho-GCN2 by Western blot. D) EPRS depleted IMR90 cells were compared to control cells with respect to HF induction of the AAR marker CHOP by Q-PCR. Equal concentrations of total cellular protein were loaded in each Western blot lane. CHOP expression was standardized to expression of phosphoglycerate kinase 1 (PGK1) and glyceraldehyde-3-phosphate-dehydrogenase (GAPDH). Data shown are representative of three separate experiments.
# Prolyl sulfamoyl adenosine (ProSAd) or alanyl sulfamoyl adenosine (AlaSAd), analogs of the corresponding aminoacyl adenylate, were coincubated with [^3H]-HFol as in FIG. 2. […] Binding of [^3H]-HFol was assayed as in FIG. 3, except that the nucleotide type and concentration was varied as indicated.
# To examine HF binding to ProRS, ^3H HFol was synthesized by American Radiochemicals (St. Louis) by reduction of MAZ1310 (3) at the ketone with NaB^3H4, followed by removal of the Boc protecting group with 10% trifluoroacetic acid in dichloromethane, and HPLC purification of the ^3H HFol. 100 nM ^3H HFol was incubated with ProRS immobilized on Ni-NTA beads (Pierce) in 50 mM Tris pH 7.5, 5 mM MgCl2, 20 mM Imidazole, 1 mM DTT, 10% glycerol, and nucleotides, proline, or HF derivatives at room temperature for 10 minutes as indicated. After incubation, beads were washed twice with ice-cold wash buffer (50 mM Tris 7.5; 20 mM Imidazole; 1 mM DTT, 20% glycerol). ^3H HFol bound after washing was measured by liquid scintillation counting. Ni-NTA beads incubated with E. coli extracts lacking tagged ProRS were used as a background reference in all experiments.
# P. falciparum (Dd2) = assay: In vitro P. falciparum viability assay with excess proline; assay type: cell-based, Plasmodium falciparum; details: Dd2 strain in red blood cells, relative to unmodified RPMI, FIG. 23
# Method: The activity of halofuginone and amodiaquine as inhibitors of P. falciparum growth was tested in erythrocytes in RPMI with or without excess amino acids as indicated, and IC50 values were normalized to IC50 values obtained under standard conditions using unmodified RPMI (numbers in bold). The absolute IC50 values for halofuginone and amodiaquine for RPMI are reported in parentheses. Fold amino acid indicated (e.g., “5×”) is relative to the concentration of the respective amino acid in RPMI. Fold concentration of D-Pro and L-Orn are relative to L-Pro.
# In vitro potency against P. falciparum (DD2) was assessed using a modified version of the method of Plouffe and coworkers (Plouffe et al. Proc. Natl. Acad. Sci. USA 105:9059-64 (2008)). Parasites were cultured in the presence of drug in RPMI (Sigma) containing 4.16 mg/ml Albumax in a total volume of 50 μl at a 2.5% hematocrit and an initial parasitemia of 0.3% in black Greiner GNF clear-bottom plates. Cultures were incubated 72 hr at 37° C. under […], 4% CO2 and 3% O2. At the end of the incubation, SYBR green was added to a dilution of 1:10,000 and plates were stored overnight (or until ready to be read) at −80° C. Just before reading, plates were centrifuged at 700 rpm and fluorescence was read using 480 nm excitation and 530 nm emission frequencies. Compound concentrations that inhibit parasite replication reduce the fluorescence intensity of SYBR green bound to parasite DNA.
# [3] = biological target: T2, prolyl tRNA synthetase domain of human EPRS (ProRS) (Homo sapiens, UniProt P07814)
# T2 sequence (P07814 998-1512 limits assumed): T1 sequence (P07814 998-1512 limits assumed)
# Method: Activity of the Prolyl tRNA synthetase domain of EPRS (ProRS) was measured as ^3H Pro incorporation into the charged tRNA pool. […] Purified enzyme was visualized as a single band by Laemmli gel electrophoresis/Coomassie staining.
# Purified enzyme was visualized as a single band by Laemmli gel electrophoresis/Coomassie staining. […] In preliminary experiments, the assay was established to be linear over the time (6 min) and conditions used (30 degrees, 2 mM ATP, 1 μg/μl total tRNA purified from rabbit liver).
# For the rapid, quantitative isolation of aminoacylated tRNA^pro from synthetase reaction mixtures, reactions were stopped with 100 μl of ice cold 20 mM MOPS pH6.2, 200 mM NaCl, 10 mM EDTA, 30% Glycerol and placed on ice. Samples were added to 15 μl of packed Mono Q HP beads (GE Healthcare) equilibrated in the same buffer. Samples were incubated with beads on ice for 10 min, beads were pelleted by 5 sec centrifugation in a tabletop microfuge and washed 3× 1 ml of wash buffer (20 mM MOPS pH6.2, 50 mM NaCl), and recovered pellets counted in a liquid scintillation counter. Background binding of ^3H Pro to beads (using reaction mix with either no enzyme added or no tRNA added) was negligible (20-40 cpm).
# [4] = test system: primary human prostate stromal (hPrSc) cells, s100a4; assay: S100A4 mRNA in primary human prostate stromal cells; assay type: cell-based; details: with or without TGF 10 ng/ml, FIG. 28
# Method: (§1) Primary human prostate stromal (hPrSc) cells were left in low-serum media (0.2%) for 24 hours, and treated consecutively twice for 48 hours with or without tumor-growth factor beta (TGF; 10 ng/ml), halofuginone (HF) or halofuginol (HFol) at the concentrations indicated. Relative mRNA levels of the fibrosis/tissue invasion marker s100a4 was measured by quantitative real-time PCR using glyceraldehyde-3-phosphate dehydrogenase (GAPDH) as internal control.
# [5] = test system: primary human prostate stromal (hPrSc) cells, col1a1; assay: Type I collagen (col1a1) mRNA in primary human prostate stromal cells; assay type: cell-based; details: treated twice for 48 hours, FIG. 27
# Method: as §1, with “hours,” for “hours with or without tumor-growth factor beta (TGF; 10 ng/ml),”, “myofibroblastic markeralpha 1 collagen type 1 (col1a1)” for “fibrosis/tissue invasion marker s100a4”
# [6] = test system: Th17 cell differentiation (primary murine CD4+ CD25- T cells); assay: Th17 differentiation of T cells; assay type: cell-based, mouse; details: 6 nM (3 ng/mL) borrelidin, FIG. 19
# Method: A) Primary murine CD4^+ CD25^− T cells were activated through the T-cell receptor in Th17 polarizing conditions (Sundrud et al. Science 324:1334-8 (2009)) in the presence of either 10 nM MAZ1310 or HF and the following amino acid supplements: 10× concentration of essential (EAA) or non-essential (NEAA) amino acids mixtures (Biowhittaker or Invitrogen, respectively), or 10× concentrations (1 mM) of indicated individual amino acids. Data are presented as mean percentage of Th17 (IL-17+ IFNg−) cells +/−SD from triplicate wells. B) Th17 differentiation was assayed as described above, in the absence or presence of HF or borrelidin, with or without 1 mM threonine or proline supplementation. C) MEFs were treated with or without HF (50 nM) and/or proline (2 mM) for 4 hours (CHOP, S100A4) or 24 hours (ColIA1, Col1A2). mRNA expression was normalized to expression of TBP and is shown relative to untreated control. […] Confidence intervals (p-value) for the effect of HF alone versus HF+Pro were determined using a two-tailed Student's t test. […] D) Cells were pre-incubated for 24 hours with HF and proline as indicated, and secretion of Type I procollagen was measured after 24 hours in conditioned medium of cells plated by Western blot and quantitated using Image J software (top panel). Total protein synthesis was measured as TCA-precipitable ^35S in a scintillation counter (bottom panel). […]
# [7] = inhibitor 1 μM, anti-myc Western blot, FIG. 2C
structure (smiles),measurement,setting,value
"O=C(C[C@@H]1NCCC[C@H]1O)Cn1cnc2cc(Br)c(Cl)cc2c1=O (single isomer, unassigned) [2S,3R isomer of HF]",inhibition of translation of luciferase RNA in RRL,[1],no activity
"C[C@H](N)C(=O)NS(=O)(=O)OC[C@H]1O[C@@H](n2cnc3c(N)ncnc32)[C@H](O)[C@@H]1O [AlaSAd, alanyl sulfamoyl adenosine]",inhibition of [3H]-HFol binding to ProRS,[2]; 50 nM competitor,partially inhibited
"O=C(C[C@H]1NCCC[C@@H]1O)Cn1cnc2ccccc2c1=O [FF, febrifugine]",translation of Nopropep (proline-free polypeptide),[1]; [7],no effect
same,translation of Propep (proline dipeptide containing polypeptide),[1]; [7],prevent translation
same,inhibition of translation of luciferase RNA in RRL,[1],inhibited
same,fold increase of effective IC50 on addition of 5× proline,P. falciparum (Dd2),~5 fold
"O=c1c2cc(Cl)c(Br)cc2ncn1C[C@@H](O)C[C@H]1NCCC[C@@H]1O [HFolA, halofuginol]",inhibition of ProRS activity,[3]; 3H Pro incorporation into tRNA,active; also recorded: inhibits; also recorded: potent inhibitor
"O=c1c2cc(Cl)c(Br)cc2ncn1C[C@H](O)C[C@H]1NCCC[C@@H]1O [HFolA, halofuginol]",expression of the activated fibroblast marker S100A4,[4],inhibit
same,Type 1 collagen expression in fibroblasts in culture,[5],inhibit
same,inhibition of ProRS (EPRS) activity,"[3]; 100 μM Pro, FIG. 13",inhibits; also recorded: potency similar to the parent compound
CC(C)(C)OC(=O)N1CCC[C@H](O)[C@H]1CC(=O)Cn1cnc2cc(Br)c(Cl)cc2c1=O [MAZ1310],inhibition of ProRS activity,"[3]; 14C Proline used as trace label, FIG. 9",does not block; also recorded: no inhibitory effect
same,inhibition of translation of luciferase RNA in RRL,[1],no activity
"Nc1ncnc2c1ncn2[C@@H]1O[C@H](COS(=O)(=O)NC(=O)[C@@H]2CCCN2)[C@@H](O)[C@H]1O [ProSAd, 5-O—[N-(L-prolyl)-sulfamoyl]adenosine]",inhibition of [3H]-HFol binding to ProRS,[2]; 10 nM competitor,inhibited
[3H][C@@](O)(C[C@H]1NCCC[C@@H]1O)Cn1cnc2cc(Br)c(Cl)cc2c1=O [[^3H]-HFol],direct binding to immobilized ProRS,"[2]; 5 mM MgCl2, 2 mM ATP, 10 min RT",bound directly
CCN(CC)Cc1cc(Nc2ccnc3cc(Cl)ccc23)ccc1O [amodiaquine],fold increase of effective IC50 on addition of 5× proline,P. falciparum (Dd2),did not affect
C[C@@H]1C[C@H](C)C[C@H](C)[C@@H](O)CC(=O)O[C@H]([C@@H]2CCC[C@H]2C(=O)O)C/C=C/C=C(/C#N)[C@H](O)[C@@H](C)C1 [borrelidin],inhibition of Th17 cell differentiation,[6],selectively inhibits
same,inhibition of Th17 cell differentiation,[6]; listed as Borrelidin,inhibited

# Reference: US10155742B2, “Halofuginol derivatives and their use in cosmetic and pharmaceutical compositions” (President and Fellows of Harvard College, priority 2012, dated 2018)
